Data as given in patent US4487937A, “2-(2-Substitutedamino-4-thiazolyl)-2-(1-methoxy-isopropoxyimino)-acetic acids” (Roussel Uclaf, priority 1977, dated 1984).
≈ marks a conversion by molar mass, not a printed value. Where two headings read alike, the source gives them in different places.

Assays:
Assay in all cases: In vitro MIC, dilution of a liquid medium
Format in all cases: cell-based
[1] = system: Staphylococcus aureus UC 1 128 Penicillin-resistant; details: 37° C., read-out: minimum inhibiting concentration (MIC)
Procedure: (§1) The method used was a dilution of a liquid medium where a series of tubes received the same quantity of a sterile nutritive media and increasing doses of the test compounds were placed therein. Then each tube was seeded with a bacterial strain and was incubated for 24 or 48 hours at 37° C. in an oven. The increasing inhibition was determined by transillumination to determine the minimum inhibiting concentration (MIC in μg/ml) and the results are reported in the following Tables.

[2] = system: Salmonella typhimurium 420; details: Salmonella enterica, read-out: minimum inhibiting concentration (MIC)
Procedure: as §1

[3] = system: Streptococcus faecalis 5 432; details: Enterococcus faecalis, 5432, 37° C., read-out: minimum inhibiting concentration (MIC)
Procedure: as §1

[4] = system: Bacillus subtilis ATCC 6 633; details: 37° C., read-out: minimum inhibiting concentration (MIC)
Procedure: as §1

[5] = system: Klebsiella pneumoniae Exp. 52 145; details: read-out: minimum inhibiting concentration (MIC)
Procedure: as §1

[6] = system: Escherichia Coli Resistant Tetracycline ATCC 11 303; details: read-out: minimum inhibiting concentration (MIC)
Procedure: as §1

[7] = system: Staphylococcus aureus exp. n° 54 146; details: 37° C., read-out: minimum inhibiting concentration (MIC)
Procedure: as §1

Providencia Du 48 = details: 37° C., read-out: minimum inhibiting concentration (MIC)
Procedure: as §1

[8] = system: Escherichia Coli Exp. TO26 B6; details: 37° C., read-out: minimum inhibiting concentration (MIC)
Procedure: as §1

[9] = system: Staphylococcus aureus ATCC 6 538 Penicillin-Sensitive; details: 37° C., read-out: minimum inhibiting concentration (MIC)
Procedure: as §1

[10] = system: Streptococcus pyogenes A 561; details: read-out: minimum inhibiting concentration (MIC)
Procedure: as §1

[11] = system: Serratia Resistant Gentamicine 2 532; details: 37° C., read-out: minimum inhibiting concentration (MIC)
Procedure: as §1

[12] = system: Proteus mirabilis (indol -) A 235; details: 37° C., read-out: minimum inhibiting concentration (MIC)
Procedure: as §1

[13] = system: Proteus vulgaris (indol +) A 232; details: read-out: minimum inhibiting concentration (MIC)
Procedure: as §1

[14] = system: Streptococcus faecalis 99 F 74; details: Enterococcus faecalis, 99F74, 37° C., read-out: minimum inhibiting concentration (MIC)
Procedure: as §1

Enterobacter cloacae 681 = details: 37° C., read-out: minimum inhibiting concentration (MIC)
Procedure: as §1

[15] = system: Klebsiella pneumoniae 2 536 Resistant Gentamicine; details: read-out: minimum inhibiting concentration (MIC)
Procedure: as §1

[16] = system: Escherichia Coli Sensitive Tetracycline ATCC 9 637; details: read-out: minimum inhibiting concentration (MIC)
Procedure: as §1

[17] = system: Escherichia Coli Resistant Gentamicine, Tobramycine R 55 123 D; details: read-out: minimum inhibiting concentration (MIC)
Procedure: as §1

CCOC(=O)CO/N=C(\C(=O)NC1C(=O)N2C(C(=O)O)=C(COC(C)=O)CS[C@H]12)c1csc(N)n1 (some centres unmarked) [Example 2, 7-[2-(2-amino-4-thiazolyl)-2-carbethoxymethyloxyimino-acetamido]-3-acetoxymethyl-ceph-3-eme-4-carboxylic acid] gave an MIC ([1]; UC1, 24 H) of 3 µg/mL (≈ 5.69 µM), an MIC ([1]; UC1, 48 H) of 3 µg/mL (≈ 5.69 µM) and an MIC ([2]; 48 H, 37° C.) of 2 µg/mL (≈ 3.79 µM). For the same molecule, the MIC ([2]; 24 h) was 1 µg/mL (≈ 1.9 µM), the MIC ([3]; 24 H) was 5 µg/mL (≈ 9.48 µM) and the MIC ([3]; 48 H) was > 40 µg/mL. It also gave an MIC ([4]; ATCC6, 24 H) of 0.5 µg/mL (≈ 0.948 µM), an MIC ([4]; ATCC6, 48 H) of 5 µg/mL (≈ 9.48 µM) and an MIC ([5]; EXP.52145, 48 H, 37° C.) of 0.2 µg/mL (≈ 0.379 µM). For the same molecule, the MIC ([5]; EXP.52145, 24 h) was 0.1 µg/mL (≈ 0.19 µM), the MIC ([6]; ATCC11, 24 H, 37° C.) was 0.5 µg/mL (≈ 0.948 µM) and the MIC ([6]; ATCC11, 48 h) was 1 µg/mL (≈ 1.9 µM). The MIC ([7]; 24 H) was 3 µg/mL (≈ 5.69 µM), the MIC ([7]; 48 H) was 5 µg/mL (≈ 9.48 µM) and the MIC (Providencia Du 48; DU48, 24 H) was 5 µg/mL (≈ 9.48 µM). The MIC (Providencia Du 48; DU48, 48 H) was 5 µg/mL (≈ 9.48 µM), the MIC ([8]; 24 H) was 1 µg/mL (≈ 1.9 µM) and the MIC ([8]; 48 H) was 1 µg/mL (≈ 1.9 µM). The MIC ([9]; ATCC6, 24 H) was 3 µg/mL (≈ 5.69 µM), the MIC ([9]; ATCC6, 48 H) was 5 µg/mL (≈ 9.48 µM) and the MIC ([10]; A561, 24 H, 37° C.) was 0.05 µg/mL (≈ 0.0948 µM). It also gave an MIC ([10]; A561, 48 h) of 0.1 µg/mL (≈ 0.19 µM), an MIC ([11]; 24 H) of 5 µg/mL (≈ 9.48 µM) and an MIC ([11]; 48 H) of 5 µg/mL (≈ 9.48 µM). It also gave an MIC ([12]; 24 H) of 0.2 µg/mL (≈ 0.379 µM), an MIC ([12]; 48 H) of 0.2 µg/mL (≈ 0.379 µM) and an MIC ([13]; 24 h) of 1 µg/mL (≈ 1.9 µM). For the same molecule, the MIC ([13]; 48 h) was 1 µg/mL (≈ 1.9 µM), the MIC ([14]; 24 H) was > 40 µg/mL and the MIC ([14]; 48 H) was > 40 µg/mL. For the same molecule, the MIC (Enterobacter cloacae 681; 24 H) was 10 µg/mL (≈ 19 µM), the MIC (Enterobacter cloacae 681; 48 H) was 10 µg/mL (≈ 19 µM) and the MIC ([15]; 24 H, 37° C.) was 2 µg/mL (≈ 3.79 µM). For the same molecule, the MIC ([15]; 48 H, 37° C.) was 2 µg/mL (≈ 3.79 µM), the MIC ([16]; ATCC9, 24 H, 37° C.) was 2 µg/mL (≈ 3.79 µM) and the MIC ([16]; ATCC9, 48 H, 37° C.) was 2 µg/mL (≈ 3.79 µM). For the same molecule, the MIC ([17]; 24 h) was 1 µg/mL (≈ 1.9 µM) and the MIC ([17]; 48 h) was 1 µg/mL (≈ 1.9 µM).
CC(=O)OCC1=C(C(=O)O)N2C(=O)C(NC(=O)/C(=N\OCC(=O)O)c3csc(N)n3)[C@H]2SC1 (some centres unmarked) [Example 5, disodium 7-[2-(2-amino-4-thiazolyl)-2-hydroxycarbonylmethoxyimino-acetamido]-3-acetoxymethyl-ceph-3-eme-4-carboxylate] gave an MIC ([1]; UC1, 24 H) of 20 µg/mL, an MIC ([1]; UC1, 48 H) of 20 µg/mL and an MIC ([2]; 48 H, 37° C.) of 0.5 µg/mL. The MIC ([2]; 24 h) was 0.2 µg/mL, the MIC ([3]; 24 H) was 20 µg/mL and the MIC ([3]; 48 H) was > 40 µg/mL. The MIC ([5]; EXP.52145, 24 h) was 0.1 µg/mL, the MIC ([5]; EXP.52145, 48 h) was 0.1 µg/mL and the MIC ([6]; ATCC11, 24 H, 37° C.) was 0.05 µg/mL. It also gave an MIC ([6]; ATCC11, 48 H, 37° C.) of 0.05 µg/mL, an MIC ([7]; 24 H) of 20 µg/mL and an MIC ([7]; 48 H) of 20 µg/mL. The MIC (Providencia Du 48; DU48, 24 H) was 1 µg/mL, the MIC (Providencia Du 48; DU48, 48 H) was 2 µg/mL and the MIC ([8]; 24 H) was 0.1 µg/mL. For the same molecule, the MIC ([8]; 48 H) was 0.1 µg/mL, the MIC ([9]; ATCC6, 24 H) was 10 µg/mL and the MIC ([9]; ATCC6, 48 H) was 10 µg/mL. For the same molecule, the MIC ([10]; A561, 24 H, 37° C.) was 0.5 µg/mL, the MIC ([10]; A561, 48 H, 37° C.) was 0.5 µg/mL and the MIC ([11]; 24 H) was 1 µg/mL. The MIC ([11]; 48 H) was 2 µg/mL, the MIC ([12]; 24 H) was ≤ 0.02 µg/mL and the MIC ([12]; 48 H) was ≤ 0.02 µg/mL. The MIC ([13]; 24 h) was 0.1 µg/mL, the MIC ([13]; 48 h) was 0.1 µg/mL and the MIC ([14]; 24 H) was > 40 µg/mL. For the same molecule, the MIC ([14]; 48 H) was > 40 µg/mL, the MIC (Enterobacter cloacae 681; 24 H) was 5 µg/mL and the MIC (Enterobacter cloacae 681; 48 H) was 20 µg/mL. For the same molecule, the MIC ([15]; 24 h) was 0.1 µg/mL, the MIC ([15]; 48 h) was 0.1 µg/mL and the MIC ([16]; ATCC9, 24 h) was 0.2 µg/mL. For the same molecule, the MIC ([16]; ATCC9, 48 h) was 0.2 µg/mL, the MIC ([17]; 24 h) was 0.1 µg/mL and the MIC ([17]; 48 h) was 0.1 µg/mL.
